Source: paper PMC12122428, “Discovery of non-covalent rhinovirus 3Cpro inhibitors by molecular docking, in vitro assays, molecular dynamics simulations and DFT analyses” (Frontiers in Pharmacology, 2025)
Like-named read-outs stand apart in the source and are kept apart here.

Columns and labels:
HRV-14 3Cpro [1] = molecular target: T1, HRV-14 3Cpro (Human rhinovirus 14, UniProt P03303); assay: HRV-14 3Cpro enzyme inhibition assay (Dabcyl-[…]-Edans cleavage, fluorescence); type: biochemical; conditions: for inhibition at 50 µM / Inhibition % HRV 3Cpro @ 50 μM: 50 μM compound, single point; for IC50: concentration-response, 50 μM to 0.617 μM, n = 5, mean ± SEM
T1 construct: most efficiently processed substrate by HRV-14 3Cpro (Acro, Beijing, China); purchased Acro, Beijing, China
T1 sequence (P03303 1538-1719): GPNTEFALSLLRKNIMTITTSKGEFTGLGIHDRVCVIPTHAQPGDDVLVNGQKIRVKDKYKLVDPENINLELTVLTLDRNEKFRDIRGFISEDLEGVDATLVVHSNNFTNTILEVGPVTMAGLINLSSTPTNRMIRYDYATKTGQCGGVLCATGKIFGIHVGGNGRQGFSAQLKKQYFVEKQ
Method: In the in vitro cleavage assay, the peptide Dabcyl-[…]-Edans was identified as the most efficiently processed substrate by HRV-14 3Cpro (Acro, Beijing, China), and was subsequently utilized in the enzyme inhibition assay. A total of 44 candidate compounds were purchased from Topscience (TargetMol, United States). Dimethyl sulfoxide (DMSO) (Innochem, Beijing, China) served as the solvent for dissolving the compounds, and all solutions were stored at −20°C. The assays were conducted using 100 μL reaction samples, which comprised 1 μL of protease, 10 μL of a 10 μM substrate solution, and varying concentrations of the tested compounds (ranging from 50 μM to 0.617 μM) in a 50 mM Tris buffer at pH 7.0. To evaluate the inhibitory effects of the compounds, the protease and each compound were preincubated at 37°C for 30 min before the addition of the substrate. The reaction mixture was subsequently incubated for 1 h at 37°C. Fluorescence measurements were performed using a multifunction enzyme label reader (SpectraMax M5, Molecular Devices), set to an excitation wavelength of 340 nm and an emission wavelength of 490 nm. […] The inhibition rate was quantified according to the following formula: Inhibition rate 100%=RFUemzyme−RFUsample/RFUemzyme−RFUcontrol×100%

HRV-14 3Cpro [2] = molecular target: T1, HRV-14 3Cpro; conditions: cited from earlier work
HRV-14 = conditions: ref Binford et al., 2007; Zalman et al., 2000; read-out: antiviral activity EC50; cited from earlier work

inhibition at 50 µM (HRV-14 3Cpro [1])	Inhibition % HRV 3Cpro @ 50 μM (HRV-14 3Cpro [1])	IC50 (HRV-14 3Cpro [1])	Structure (SMILES)	pIC50 (HRV-14 3Cpro [2]; non-covalent inhibitor, ref Baxter et al., 2011)	IC50 (HRV-14 3Cpro [2]; macrocyclic covalent inhibitor, ref Kawatkar et al., 2016, Namoto et al., 2018)	EC50 (HRV-14)
75.6%	75.5%	24100 ± 550 nM	CCOc1ccc(NC(=O)[C@H](CC(C)C)NC(=O)[C@H]2CC[C@@H](C)CC2)cc1 [Compound S34]			
88.8%	88.7%	2330 ± 500 nM	CCC(CC)C(=O)Nc1cccc(C(=O)Nc2ccccc2C(=O)Nc2ccc(OC)cc2)c1 [Compound S43]			
80.5%	80.5%	30400 ± 670 nM	Nc1c(NC(=O)NC[C@H]2CCCO2)c(-c2ccccc2)nn1-c1ccc(C(F)(F)F)cc1 [Compound S21]			
96.5%		11300 ± 710 nM	O=C(COC(=O)[C@@H](CC(=O)c1ccccc1)Nc1ccc(F)cc1)c1ccccc1 [Compound S33]			

Further lines, the compound ahead of its results:

Structure (SMILES)	inhibition at 50 µM (HRV-14 3Cpro [1])	Inhibition % HRV 3Cpro @ 50 μM (HRV-14 3Cpro [1])	IC50 (HRV-14 3Cpro [1])	pIC50 (HRV-14 3Cpro [2]; non-covalent inhibitor, ref Baxter et al., 2011)	IC50 (HRV-14 3Cpro [2]; macrocyclic covalent inhibitor, ref Kawatkar et al., 2016, Namoto et al., 2018)	EC50 (HRV-14)
O=c1cc(-c2cccnc2)[nH]c2cc(Cc3ccccc3)ccc12 [Compound 14]				4.7		
Cc1occc1C(=O)N[C@@H]1C(=O)N[C@@H](Cc2ccc(F)cc2)C(=O)N[C@H](C=O)CCC(=O)N(C)Cc2cccc1c2 [compound 10]					8 nM	
CCOC(=O)/C=C/[C@H](C[C@@H]1CCNC1=O)NC(=O)[C@@H](CC(=O)[C@@H](NC(=O)c1cc(C)on1)C(C)C)Cc1ccc(F)cc1 [Rupintrivir, reference compound]			220 ± 340 nM			12 nM
